Consider 58 molecules from patent publication US7645802B2 (Biovail Laboratories International SRL., priority 2005, dated 2010).

Where a name gives a salt, the structure may show the parent alone. Marks after values point to notes of the source that are not given here.

The first data set can be described thus: Moisture content and pH of aqueous solutions of bupropion salts. It counts as physicochemical. As to conditions: After re crystallization (R&D), tested after 2 Months.
For `CC(NC(C)(C)C)C(=O)c1cccc(Cl)c1.Cc1ccc(S(=O)(=O)O)cc1` (stereo not shown) [Bup-Tosylate], the “moisture content KF” value came out at 0.18%.

The data set is the same for the next values; noted with them: After re crystallization (R&D), tested after 1 day.
As to `CC(NC(C)(C)C)C(=O)c1cccc(Cl)c1.Cc1ccc(S(=O)(=O)O)cc1` (stereo not shown) [Bup-Tosylate], the “moisture content KF” value was found to be 023% and the “pH (aq. 0.5%)” value is recorded as 5.88.

The same data set, now with this note: Original (Initial APIs).
In the case of `CC(NC(C)(C)C)C(=O)c1cccc(Cl)c1.O=C(O)/C=C\C(=O)O` (stereo not shown) [Bup-Maleate], the “moisture content KF” value is given as 0.10% and the “pH (aq. 0.5%)” value worked out at 4.29. As for `CC(NC(C)(C)C)C(=O)c1cccc(Cl)c1.Cl` (stereo not shown) [Bup-HCl], the “moisture content KF” value is listed as 0.0% and the “pH (aq. 0.5%)” value is recorded as 5.90. Turning to `CC(NC(C)(C)C)C(=O)c1cccc(Cl)c1.O=C(O)CC(O)(CC(=O)O)C(=O)O` (stereo not shown) [Bup-Citrate (I)], the “moisture content KF” value came out at 0.23% and the “pH (aq. 0.5%)” value turned out to be 3.89. Turning to `CC(NC(C)(C)C)C(=O)c1cccc(Cl)c1.CC(NC(C)(C)C)C(=O)c1cccc(Cl)c1.O=C(O)C(O)C(O)C(=O)O` (stereo not shown) [Bup-Tartrate neutral], the “moisture content KF” value was determined as 0.14% and the “pH (aq. 0.5%)” value was 3.62. As for `CC(NC(C)(C)C)C(=O)c1cccc(Cl)c1.Cc1ccc(S(=O)(=O)O)cc1` (stereo not shown) [Bup-Tosylate], the “moisture content KF” value is on record as 1.71* % and the “pH (aq. 0.5%)” value was determined as 5.56. As to `Br.CC(NC(C)(C)C)C(=O)c1cccc(Cl)c1` (stereo not shown) [Bup-HBr], the “moisture content KF” value came to 0.00%.

A further data set can be described thus: stability of polymorphic forms I, II, III by PXRD under ICH conditions. In kind it is physicochemical. As to conditions: 40° C., 75% R.H. (b1144 also 25° C./60% RH), 3 months and 6 months; hydrobromide. The procedure: It is well known that organic molecules can crystallize into solid forms. Moreover the same organic compound may assume different crystalline arrangements in solid form, depending on the conditions under which the crystal product is formed. This phenomenon is commonly known as polymorphism. A study was undertaken to explore the polymorphic forms of bupropion hydrobromide. The crystal forms of the products obtained in this study were determined by powder X-ray diffraction (PXRD). A RIGAKU miniflex instrument (Radiation Cu Koc, generator 30 KV, filter Ni) was used to obtain the PXRD data.
The three polymorphic forms were subjected to stability testing. Samples of the polymorphic forms were subjected to ICH conditions (40° C., 75% R.H.) and PXRD data was obtained at 3 months and 6 months. […] Samples of the polymorphic forms II and III were tested after 1 month under the same accelerated stability conditions.
Samples of bupropion HBr form I were subjected to the conditions for the accelerated stability study as described in Example 10 and the shelf life stability study as described in Example 11.
10 g of bupropion HBr form I were dissolved in a mixture of 170 ml of acetone and 7 ml of water. The mixture was brought to reflux with dissolution of the solid. The solution was then cooled to room temperature. After one night the precipitate formed was filtered and dried at 40° C. under vacuum (30 mmHg) for 12 hours. 2.4 g of bupropion HBr form II were obtained. […] The crystalline form was checked after maintaining the product under these conditions for 1 month.
The mixture was brought to reflux obtaining complete dissolution of the solid. The solution was then cooled to room temperature without stirring and left in these conditions for 18 hours. The resulting crystalline solid was then filtered and dried under vacuum (30 mmHg) at 50° C. for 4 hours. 11.2 g of bupropion HBr form III were obtained. A sample of the product was prepared for stability testing by sealing the product in polyethylene bags, which in turn were placed in aluminium bags containing silica and sealed, and placed in the stability chamber in ICH conditions (40° C./75% R.H.). The crystalline form was checked after maintaining the product in these conditions for 1 month.
Consider `CC(NC(C)(C)C)C(=O)c1cccc(Cl)c1` (stereo not shown) [bupropion HBr form I, bupropion hydrobromide], for which the “PXRD profile after storage (polymorph stability)” value (“PXRD profile after storage” below) is on record as “gave the same results”.

The same data set, now with this note: 40° C., 75% R.H. (b1144 also 25° C./60% RH), 3 months and 6 months; listed as polymorphic form I, hydrobromide.
On to `CC(NC(C)(C)C)C(=O)c1cccc(Cl)c1` (stereo not shown) [bupropion HBr form I, bupropion hydrobromide], for which the “PXRD profile after storage” value is “same PXRD profile”.

Still in this data set, the particulars now being: ICH conditions 40° C./75% R.H., 1 month; hydrobromide.
As for `CC(NC(C)(C)C)C(=O)c1cccc(Cl)c1` (stereo not shown) [bupropion HBr form III, bupropion hydrobromide], the “PXRD profile after storage” value is recorded as “not stable in this form under these conditions”. `CC(NC(C)(C)C)C(=O)c1cccc(Cl)c1` (stereo not shown) [bupropion HBr form II, bupropion hydrobromide]: the “PXRD profile after storage” value was “still in form II”.

Staying with this data set, now noted: ICH conditions 40° C./75% R.H., 1 month; listed as Polymorphic form II, hydrobromide.
Take `CC(NC(C)(C)C)C(=O)c1cccc(Cl)c1` (stereo not shown) [bupropion HBr form II, bupropion hydrobromide]: the “PXRD profile after storage” value is listed as “no change in the PXRD profile”.

The data set is the same for the next values; noted with them: ICH conditions 40° C./75% R.H., 1 month; listed as form III, hydrobromide.
As for `CC(NC(C)(C)C)C(=O)c1cccc(Cl)c1` (stereo not shown) [bupropion HBr form III, bupropion hydrobromide], the “PXRD profile after storage” value is reported as “conversion to form II”.

Test in the next data set: not given
As to conditions: Ionic Surfactants (Table 98); cited from earlier work.
On to `CCCCCCCCCCCCOS(=O)(=O)[O-].[Na+]` [Sodium lauryl sulfate (dodecyl)], for which the HLB is 40. Regarding `CCCCCCCC/C=C\CCCCCCCC(=O)[O-].[Na+]` [Sodium oleate], the HLB was 18.

Still in this data set, the particulars now being: Lower Alcohol Fatty Acid Ester Surfactants (Table 97); cited from earlier work.
On to `CCCCC/C=C\C/C=C\CCCCCCCC(=O)OC(C)C` [Isopropyl linoleate], for which the HLB is under 10. In the case of `CCCCCCCC/C=C\CCCCCCCC(=O)OCC` [Ethyl oleate], the HLB is under 10. Regarding `CCCCCCCCCCCCCC(=O)OC(C)C` [Isopropyl myristate], the HLB was under 10. On to `CCCCC/C=C\C/C=C\CCCCCCCC(=O)OCC` [Ethyl linoleate], for which the HLB was under 10.

The data set is the same for the next values; noted with them: Mono- and Diglyceride Surfactants (Table 89); cited from earlier work.
Take `CCCCCC(=O)OCC(O)CO` (stereo not shown) [Monocaproin (C6)]: the HLB is listed as under 10. Take Glyceryl mono-, dioleate: the HLB is under 10. Turning to `CCCCCCCCCCCC(=O)OCC(O)CO` (stereo not shown) [Monolaurin], the HLB is recorded as under 10. Consider `CCCCCCCCCC(=O)OCC(O)CO` (stereo not shown) [Monocaprin], for which the HLB is reported as under 10. For the molecule `CCCCCCCCCCCCCCCCCC(=O)OCC(O)CO` (stereo not shown) [Glycerol monostearate], the HLB is on record as 5-9.

Take `CCCCCCCCCCCCCC(=O)OCC(O)CO` (stereo not shown) [Glyceryl monomyristate (C14)]: the HLB is listed as 3-4. As for Glyceryl dioleate, the HLB is given as 3-4. As to Mono-and diacetylated monoglycerides, the HLB is on record as 3.8-4. With `CCCCC/C=C\C/C=C\CCCCCCCC(=O)OCC(O)CO` (stereo not shown) [Glycerol monolinoleate], the HLB is recorded as 3-4. Glyceryl palmitic/stearic: the HLB is listed as under 10. As to `CCCCCCCC(=O)OCC(O)CO` (stereo not shown) [Glyceryl caprylate], the HLB is recorded as 5-6.

For Caprylic/capric glycerides, the HLB is under 10. As for Glycerol monooleate/linoleate, the HLB is recorded as 3-4.

As for `CCCCCC[C@@H](O)C/C=C\CCCCCCCC(=O)OCC(O)CO` (stereo partly shown) [Glyceryl ricinoleate], the HLB is 6.

In the case of `CCCCCCCCCCCC(=O)OCC(O)CO` (stereo not shown) [Glyceryl monolaurate], the HLB is on record as 6.8. On to `CCCCCCCCCCCC(=O)OCC(O)CO` (stereo not shown) [Glyceryl laurate], for which the HLB is on record as 4. Turning to Distearin, the HLB is under 10. Turning to `CC(=O)OCC(O)CO` (stereo not shown) [Glyceryl acetate], the HLB was under 10. As to `CCCCCCCC/C=C/CCCCCCCC(=O)OCC(O)CO` (stereo not shown) [Monoelaidin (C18:1)], the HLB is under 10. As to `CCCCCCCC/C=C\CCCCCCCC(=O)OCC(O)CO` (stereo not shown) [Glyceryl monooleate (C18:1)], the HLB is reported as 3-4.

For the molecule `CCCCCCCCCCCCCCCC(=O)OCC(O)CO` (stereo not shown) [Glycerol monopalmitate], the HLB is 4. Regarding `CCCCCCCC(=O)OCC(O)CO` (stereo not shown) [Monocaprylin], the HLB is under 10.

The data set is the same for the next values; noted with them: Polyethylene Glycol Alkyl Ethers (Table 92); cited from earlier work.
Consider PEG-5 oleyl ether, for which the HLB is on record as under 10. As for PEG-3 oleyl ether, the HLB is under 10. For the molecule PEG-4 lauryl ether, the HLB was 9.7.

The data set is the same for the next values; noted with them: Sorbitan Fatty Acid Ester Surfactants (Table 96); cited from earlier work.
Sorbitan monooleate: the HLB is listed as 4.3. In the case of Sorbitan trioleate, the HLB is on record as 4.3. Take Sorbitan monostearate: the HLB is recorded as 4.7.

As for Sorbitan monoisostearate, the HLB is listed as 4.7. For Sorbitan sesquistearate, the HLB is reported as 4.2. In the case of `CCCCCCCCCCCCCCCC(=O)OC[C@@H](O)[C@H]1OC[C@H](O)[C@H]1O` [Sorbitan monopalmitate], the HLB was 6.7.

The same data set, now with this note: Sterol and Sterol Derivative Surfactants (Table 90); cited from earlier work.
Take PEG-24 cholesterol ether: the HLB is listed as over 10. For the molecule PEG-30 cholestanol, the HLB is recorded as over 10. With PEG-5 soya sterol, the HLB is on record as under 10. For PEG-20 soya sterol, the HLB is given as under 10.

Regarding PEG-30 soya sterol, the HLB is over 10. PEG-10 soya sterol: the HLB was under 10.

On to Phytosterol, for which the HLB is recorded as under 10. Turning to PEG-25 phyto sterol, the HLB is reported as over 10.

The same data set, now with this note: Sugar Ester Surfactants (Table 93); cited from earlier work.
Regarding Sucrose dipalmitate, the HLB is listed as 7.4. For Sucrose distearate, the HLB is on record as 3.

On to Sucrose monopalmitate, for which the HLB was over 10.

The next data set in a line: forced degradation stability study of bupropion salts in vials, 40 degrees C./75% RH, HPLC assay and impurities.
Conditions: not given
With Bupropion Fumarate, the “In IPA/EtOH, 3-CBZ: order of impurity content” value is listed as “maleate > HBr > HCl > Fumarate”; the “In IPA/EtOH, 852U77: order of impurity content” value is “fumarate > HBr ≈HCl ≈maleate ≈tosylate”; the “In IPA/EtOH, Total imp.: order of impurity content” value is on record as “fumarate > maleate > HBr > HCl > tosylate”; the “In water, 3-CBZ: order of impurity content” value is reported as “HCl > HBr≈maleate≈fumarate”. Besides, the “In water, 852U77: order of impurity content” value is “fumarate > HBr > maleate > HCl” and the “In water, Total imp.: order of impurity content” value was “fumarate > HBr > HCl > tosylate > maleate”.

Another data set is described as follows: moisture content by KF and pH (aq. 0.5%) of bupropion salts. It counts as physicochemical. The settings on record: salt as received. The procedure: The eight salts were first evaluated by HPLC, KF, pH and DSC for purity, water content, aqueous pH and possible polymorphs.
The salts were analyzed by DSC (at 10° C./min from 30° C. up to 400° C.) and the pH (aq. 0.5%), and the moisture content by KF were also measured. The TGA was performed on the HCl, maleate, tosylate and HBr salts.
For Bupropion Fumarate, the “moisture content KF” value is recorded as 0.09% and the “pH of the aqueous solution of 0.5%” value is on record as 3.84.
